pIC50: −log10 of the molar value. Entries after “also recorded” stand apart in the source; their conditions may differ.
Legend:
[1] = test system: subcutaneous U-87 gliomas; assay: Nude mouse subcutaneous glioma model; assay type: in vivo; settings: local application via Q-tip, 1 cc/application/day, 8 weeks; 60 days
Method: Inhibition of tumor growth by butyryl-POH was studied in a nude mouse subcutaneous glioma model. Mice were injected with U-87 glioma cells (500,000 cells/injection) and allowed to form a palpable nodule over two weeks. Once palpable nodule was formed, the mice were treated with local application of various compounds as indicated in FIGS. 9A and 9B via a Q-tip (1 cc/application/day) over a period of 8 weeks.

U251 human glioma cells = assay: MTT cytotoxicity assay, U251 cells
Description: (§1) In vitro efficacy of the present composition can be determined using methods well known in the art. For example, the cytotoxicity of the present monoterpene (or sesquiterpene) and/or the therapeutic agents may be studied by MTT [3-(4,5-dimethylthiazol-2-yl)-2,5-diphenyl tetrazolium bromide] cytotoxicity assay. MTT assay is based on the principle of uptake of MTT, a tetrazolium salt, by metabolically active cells where it is metabolized into a blue colored formazan product, which can be read spectrometrically. J. of Immunological Methods 65: 55 63, 1983. The cytotoxicity of the present monoterpene (or sesquiterpene) derivative and/or the therapeutic agents may be studied by colony formation assay. Functional assays for inhibition of VEGF secretion and IL-8 secretion may be performed via ELISA. Cell cycle block by the present monoterpene (or sesquiterpene) derivative and/or the therapeutic agents may be studied by standard propidium iodide (PI) staining and flow cytometry. Invasion inhibition may be studied by Boyden chambers. In this assay a layer of reconstituted basement membrane, Matrigel, is coated onto chemotaxis filters and acts as a barrier to the migration of cells in the Boyden chambers. Only cells with invasive capacity can cross the Matrigel barrier. Other assays include, but are not limited to cell viability assays, apoptosis assays, and morphological assays.
(§2) To compare the cytotoxicity of Rolipram POH Carbamate (POH-Rolipram) (e.g., synthesized by the method in Example 5) with rolipram, […] inducing differentiation and apoptosis in glioma cells, A172, U87, U251 and LN229 human glioma cells were treated with either POH-Rolipram or rolipram for 48 hours.
(§3) MTT cytotoxicity assays were carried out after cells were treated with the TMZ-POH conjugate. The MTT cytotoxicity assays were carried out as described in Chen T C, et al. Green tea epigallocatechin gallate enhances therapeutic efficacy of temozolomide in orthotopic mouse glioblastoma models. Cancer Lett. 2011 Mar. 28; 302(2):100-8.

[2] = test system: human malignant glioma cells U87, A172 and U251; assay: MTT cytotoxicity assays on U87, A172 and U251 cells (stated jointly); assay type: cell-based
Method: J. of Immunological Methods 65: 55 63, 1983. […] Invasion inhibition may be studied by Boyden chambers.
Then U87, A172 and U251 cells were treated with dimethyl celecoxib bisPOH carbamate (POH-DMC) (e.g., synthesized by the method in Example 1), and the MTT cytotoxicity assays performed (FIG. 2).
Then TMZ-resistant glioma cell lines U87, A172 and U251 cells were treated with temozolomide POH carbamate (POH-TMZ) (e.g., synthesized by the method in Example 3).

[3] = test system: TMZ sensitive (U251) cells; assay: Colony forming assay, TMZ sensitive U251 cells; assay type: cell-based, human
Method: (§4) Colony forming assays were carried out after cells were treated with TMZ alone, POH alone, and the TMZ-POH conjugate. […] Cancer Lett. 2011 Mar. 28; 302(2):100-8.

[4] = test system: TMZ resistant (U251TR) U251 cells; assay: Colony forming assay, TMZ resistant U251TR cells; assay type: cell-based, human
Method: as §4

[5] = test system: TMZ resistant cells (U251TR); assay: MTT cytotoxicity assay, U251TR cells
Method: as §3

normal astrocytes = assay: MTT cytotoxicity assay, normal astrocytes; settings: listed as TMZ-POH
Method: as §3

[6] = test system: brain endothelial cells (BEC); assay: MTT cytotoxicity assay, brain endothelial cells; assay type: cell-based
Description: (§5) Cancer Lett. 2011 Mar. 28; 302(2):100-8.

[7] = test system: tumor brain endothelial cells (TuBEC); assay: MTT cytotoxicity assay, tumor brain endothelial cells; assay type: cell-based
Description: as §5

[8] = test system: USC-04 glioma cancer stem cells; assay: MTT cytotoxicity assay, USC-04 glioma cancer stem cells; assay type: cell-based; settings: USC-04, MTT
Description: as §5

[9] = test system: USC-02 glioma cancer stem cells; assay: MTT cytotoxicity assay, USC-02 glioma cancer stem cells; assay type: cell-based; settings: USC-02, MTT
Description: as §5

[10] = test system: ER stress (CHOP) in TMZ sensitive and resistant U251 glioma cells; assay: Western blot of ER stress in U251 glioma cells; assay type: cell-based, human; settings: 18 hr
Method: Western blots were performed after TMZ sensitive and resistant glioma cells were treated with the TMZ-POH conjugate for 18 hr. […] Activation of the proapoptotic protein CHOP was shown at concentrations as low as 60 uM of TMZ-POH.

A172 human glioma cells = assay: MTT cytotoxicity assay, A172 cells; assay type: cell-based; settings: A-172 cells, 48 hours
Description: as §1, with “assays. […]” for “assays.”

U87 human glioma cells = assay: MTT cytotoxicity assay, U87 cells; assay type: cell-based; settings: U-87 cells, 48 hours
Description: as §1, with “assays. […]” for “assays.”

LN229 human glioma cells = assay: cells
Description: as §1, §2

[11] = test system: A172, U87, U251 and LN229 human glioma cells; assay: MTT assay, POH-Rolipram versus rolipram across glioma cell types (stated jointly); assay type: cell-based; settings: each of A172, U87, U251, LN229; 48 hours
Description: as §1, with “assays. […]” for “assays.”

Structure (SMILES): C=C(C)C1CC=C(COC(=O)CCC)CC1 (stereo not shown) [Butyryl-POH]
- inhibition of tumor growth [1]: greatest inhibition of tumor growth

Structure (SMILES): C=C(C)C1CC=C(COC(=O)NC(=O)c2ncn3c(=O)n(C)nnc23)CC1 (stereo not shown) [POH-TMZ]
- cytotoxicity (MTT) (U251 human glioma cells; TMZ sensitive U251 cells, Example 9): demonstrated cytotoxicity
- cytotoxicity / kill rates (MTT) [2]: substantially higher kill rates
- cytotoxicity (colony forming assay) ([3]; TMZ sensitive U251 cells): demonstrated cytotoxicity
- potency in the colony forming assays compared to POH alone ([3]; U251 and U251TR cells): substantially greater potency compared to POH alone
- cytotoxicity (colony forming assay) [4]: demonstrated cytotoxicity
- cytotoxicity (MTT) [5]: demonstrated cytotoxicity
- cytotoxicity (MTT) (normal astrocytes): not towards normal astrocytes; also recorded: did not induce significant cytotoxicity
- cytotoxicity (MTT) ([6]; confluent BEC): did not induce significant cytotoxicity
- cytotoxicity (MTT) ([6]; subconfluent BEC, high concentrations): Mild to moderate cytotoxicity
- cytotoxicity (MTT) [7]: did not induce significant cytotoxicity
- pIC50 [8]: 3.82
- pIC50 [9]: 4.22
- ER stress (ERS) induction ([10]; TMZ sensitive and resistant U251 cells): induces ER stress
- lowest concentration showing activation of the proapoptotic protein CHOP ([10]; western blot): 60 µM

Structure (SMILES): C=C(C)C1CC=C(COC(=O)N2CC(c3ccc(OC)c(OC4CCCC4)c3)CC2=O)CC1 (stereo not shown) [POH-rolipram, 4-(3-cyclopentyloxy-4-methoxyphenyl)-2-oxo-pyrrolidine-1-carboxylic acid 4-isopropenyl cyclohex-1-enylmethyl ester]
- pIC50 (A172 human glioma cells): 4.30
- pIC50 (U87 human glioma cells): 3.74
- cytotoxicity at 100 uM (U251 human glioma cells): ~100%
- pIC50 (U251 human glioma cells; U251 cells, MTT, 48 hours): 4.30
- cytotoxicity at 10 uM (LN229 human glioma cells): ~100%
- pIC50 (LN229 human glioma cells; LN229 cells, MTT, 48 hours): 4.00
- kill rates (MTT) [11]: substantially higher kill rates compared to rolipram alone

Source: patent publication US20240197891A1, “PHARMACEUTICAL COMPOSITIONS COMPRISING POH DERIVATIVES” (UNIVERSITY OF SOUTHERN CALIFORNIA, priority 2021, published 2024)
